Experimental data from patent US20060141546A1, “Bacterial test method by glycated label binding” (priority 2002, published 2006).

B1: placenta ALP: Alkaline phosphatase from placenta (protein, UniProt P05187 23-506, looked up)
Alkaline phosphatase, …: IIPVEEENPDFWNREAAEALGAAKKLQPAQTAAKNLIIFLGDGMGVSTVTAARILKGQKKDKLGPEIPLAMDRFPYVALSKTYNVDKHVPDSGATATAYLCGVKGNFQTIGLSAAARFNQCNTTRGNEVISVMNRAKKAGKSVGVVTTTRVQHASPAGTYAHTVNRNWYSDADVPASARQEGCQDIATQLISNMDIDVILGGGRKYMFRMGTPDPEYPDDYSQGGTRLDGKNLVQEWLAKRQGARYVWNRTELMQASLDPSVTHLMGLFEPGDMKYEIHRDSTLDPSLMEMTEAALRLLSRNPRGFFLFVEGGRIDHGHHESRAYRALTETIMFDDAIERAGQLTSEEDTLSLVTADHSHVFSFGGYPLRGSSIFGLAPGKARDRKAYTVLLYGNGPGYVLKDGARPDVTESESGSPEYRQQSAVPLDEETHAGEDVAVFARGPQAHLVHGVQEQTFIAHVMAFAACLEPYTACDLAPPAGTTD

Key:
S. faec. = assay: ALP binding to bacteria in presence of carbohydrates, polysaccharides, glycopeptides and lectins (Example 5, Table 3); conditions: ALP 100 mUnits plus 15 μg of additive
Description: (§1) Bacterial cells (1 to 4.5×10^7 cells/mL) were washed twice with water after centrifugation to separate cells into a packed pellet from the supernatant liquid. The washed cells in pellet form were suspended in 20 μl of EPPS buffer (50 mM at pH 8.0) and 30 μL of water. Hemoglobin (20 μg) was added as a blocking additive. Alkaline phosphatase (ALP) (100 mUnits) from bovine intestine and 15 μg of simple carbohydrates or proteoglycan or lectins, were added.
(§2) The mixture of glycated protein and bacterial cells was left at 25° C. for 15 minutes. The mixture was then centrifuged at 30,000 rpm for 30 minutes after which the bacterial cells formed a pellet at the bottom of the tube and were washed with water 4-5 times (50 μL). Centrifugation allows separation of glycoprotein bound to the bacteria cells from unbound glycated protein(s).
(§3) After washing, the bacterial pellets were suspended in 50 μL of sodium tetraborate buffer (25 mM at pH 9.5). A 5 uL aliquot of the suspension was assayed for detection of ALP binding by adding 5 μL of para-nitrophenol phosphate (PNPP, 100 mM), 50 μL sodium borate buffer (25 mM at pH 9.0) and 140 μL of water. […] The color is read at 405 nm using a ELISA plate reader between 15-30 min and the absorbance is directly proportional to the amount of ALP bound to the bacteria cell adhesions for glycated groups.

E. coli = assay: as above; conditions: ALP 100 mUnits plus 15 μg of additive
Description: as §1, §2, §3

bacteria [1] = assay: ALP binding to bacteria in presence of carbohydrates, polysaccharides, glycopeptides and lectins (Example 5); conditions: 15 μg additive with ALP
Description: as §1, §2, §3

[2] = test system: bacteria (Sf—Staph. faec.; Ec: E. coli); assay: Effect of various cations on ALP binding to bacteria (Example 8, FIGS. 13-14); conditions: cations 2 mM, bovine intestinal mucosa ALP, FIG. 13
Description: (§4) Bacterial cells (1 to 4.5×10^7 cells/mL) were washed twice with water after centrifugation to separate cells into a packed pellet from the supernatant liquid. The washed cells in pellet form were suspended in 20 μL of EPPS buffer (50 mM at pH 8.0) and 30 μL of water. […]
as §2, with “was” for “were”
(§5) After washing, the bacterial pellets were suspended in 50 μL of borate buffer (25 mM at pH 9.0). A 5 μL aliquot of the suspension was assayed for detection of ALP binding by adding 5 μL of para-nitrophenol phosphate (PNPP, 100 mM), 50 μL sodium borate buffer (25 mM at pH 9.0) and 140 μL of water. […] The color was read at 405 nm using an ELISA plate reader between 15-30 min; the absorbance is directly proportional to the amount of ALP bound to the bacteria cell.

S. faecalis strain = assay: Zinc concentration dependent ALP binding (Example 7, FIG. 11); conditions: increasing concentration of zinc
Description: Bacterial cells (1 to 4.5×10^7 cells/mL) were washed twice with water after centrifugation to separate cells into a packed pellet from the supernatant liquid. The washed cells in pellet form were suspended in 20 μL of EPPS buffer (50 mM at pH 8.0) and 30 μL of water. Bovine intestinal alkaline phosphatase (ALP) (2 μg or […]) was added and 0.2 mM of several cations.
as §2
After washing, the bacterial pellets were suspended in 50 μL of borate buffer (25 mM at pH 9.0). […] The color was read at 405 nm using an ELISA plate reader between 15-30 min; the absorbance is directly proportional to the amount of ALP bound to the bacteria cell.
Concentration dependent binding study has been performed in the presence of increasing concentration of zinc with S. faecalis strain as shown in FIG. 11. […] The studies have been continued with different strains of bacteria in the presence of 1 mM Zn^2+ and the ALP binding could be monitored even at 10^5 bacteria concentration (FIG. 12).

bacteria [3] = assay: Effect of divalent cations on ALP binding to bacteria (Example 7, Table 5, FIG. 12)
Description: as §4, §2, §5

[4] = test system: bacteria (both Staph and E. coli); assay: Cation effect on ALP binding, bound ALP assayed in glycine buffer pH 10.0 (Example 9, FIGS. 17-18); conditions: binding at pH 8.0 in EPPS buffer, assay in glycine buffer pH 10.0, FIGS. 17-18
Description: The binding was conducted at pH 8.0 in EPPS buffer.

bacteria [5] = assay: Bacteria assay by binding of ALP iso-forms (Example 4, FIG. 10); conditions: for binding of ALP iso-forms to bacteria: 100 mUnits ALP, hemoglobin blocking
Description: as §1, with “μL” for “μl”, “intestine, placenta,” for “bovine intestine”, “bacteria sources” for “15 μg of simple carbohydrates or proteoglycan or lectins,”
as §2
as §3, with “in 50 μl of sodium” for “in 50 μL of sodium”, “A 5 μL aliquot of” for “A 5 uL aliquot of”, “nm using an ELISA plate” for “nm using a ELISA plate”, “to the bacteria-cell adhesions for” for “to the bacteria cell adhesions for”, “glycated groups. The results are illustrated in FIG. 10.” for “glycated groups.”

[6] = ALP activity of different sources in glycine buffer (Example 9, FIGS. 15-16); format: biochemical; conditions: assayed in glycine buffer

| Molecule | absorbance (405 nm) of ALP bound to bacteria (S. faec.) | absorbance (405 nm) of ALP bound to bacteria (E. coli) | effect on bacteria binding of ALP (in words) (bacteria [1]) | binding of ALP iso-forms to bacteria (bacteria [5]) | other results |
| --- | --- | --- | --- | --- | --- |
| OC[C@H]1O[C@@H](O)[C@H](O)[C@@H](O)[C@@H]1O [Glucose, β-D-Glucose] | 2.4 | 1.8 | did not produce any effect |  |  |
| [Cl-].[Cl-].[Zn+2] [ZnCl2] |  |  |  |  | effect of various cations on ALP-binding (in words) [2]: stimulate ALP-binding; zinc concentration at which optimum binding occurs (S. faecalis strain): 1 mM; effect of cation on binding of ALP to the bacteria (in words) (bacteria [3]; 0.2 mM): significantly higher binding of ALP; O.D. at 405 nm, With ALP (bacteria [3]; bacteria plus cation (CaCl2 1 mM, MgCl2 1 mM, ZnCl2 0.2 mM) with ALP): 0.53 O.D.; O.D. at 405 nm, No ALP (bacteria [3]; bacteria plus cation (CaCl2 1 mM, MgCl2 1 mM, ZnCl2 0.2 mM), no ALP): 0.23 O.D.; cation effectiveness for binding of ALP to the bacteria [4]: best metal |
| Lipopolysaccharide | 2.0 | 1.8 | without any effect |  |  |
| Lipoteichoic acid | 0.2 | 0.2 | strongly inhibits |  |  |
| bacterial ALP: Alkaline phosphatase from bacteria sources; lacks glycophospholipid |  |  |  | binds bacteria |  |
| B1 |  |  |  | lowest binding to bacteria | ALP activity compared with other sources [6]: comparable to ALP from other sources; enzyme activity of ALP iso-forms (bacteria [5]; PNPP): lowest enzyme activity |
